Experimental data reported in patent US20140243227A1, “CULTURE MEDIA FOR STEM CELLS” (Koninklijke Nederlandse Akademie van Wetenschappen, priority 2011, published 2014).
Read-outs that look alike come from different tables or passages of the source.

Assays:
[1] = test system: human colon crypts; assay: Screening of reagents for optimization of human intestinal organoids culture (plating efficiency); assay type: cell-based
[2] = test system: liver organoids; assay: Liver organoid expansion with PGE2 or arachidonic acid; assay type: cell-based, human; settings: for Number and size of liver organoids versus basal medium alone: PGE2 50 nM or AA 10 ug/ml
[3] = test system: colon and liver organoids; assay: GSK3 inhibitor as Wnt replacement in organoid culture media; assay type: cell-based; settings: replacement for Wnt
[4] = test system: liver organoid cultures
[5] = test system: human colon organoids; assay: Long-term culture of human colon organoids (culture period, passages); assay type: cell-based; settings: nicotinamide 10 mM, WENR + gastrin
[6] = test system: human intestinal organoids; assay: Differentiation and proliferation of human intestinal organoids; assay type: cell-based; settings: human organoids after withdrawal of Wnt
[7] = Second screening (WENR + gastrin + Nicotinamide)

| Compound | Activity (plating efficiency compared with control after 4 days culture) [1, 7] | Activity (plating efficiency compared with control after 4 days culture) ([1]; First screening (WENR)) | further results |
| --- | --- | --- | --- |
| Nc1ncn([C@@H]2O[C@H](CO)[C@@H](O)[C@H]2O)c(=O)n1 [5 Azacytidin] | 1− (1− = 0-50%) |  |  |
| CCCCC/C=C\C/C=C\C/C=C\C/C=C\CCCC(=O)O [AA, Arachidonic acid] |  |  | Number and size of liver organoids versus basal medium alone [2]: greater number of larger organoids |
| COc1cc2nc(N3CCCN(C)CC3)nc(NC3CCN(Cc4ccccc4)CC3)c2cc1OC [BIX01294] | 1− (1− = 0-50%) |  |  |
| Cc1c[nH]c(-c2cnc(NCCNc3ccc(C#N)cn3)nc2-c2ccc(Cl)cc2Cl)n1 [CHIR99021] |  |  | Wnt agonist activity in the culture media [3]: effective Wnt agonist |
| C[C@H](NC(=O)Cc1cc(F)cc(F)c1)C(=O)N[C@H](C(=O)OC(C)(C)C)c1ccccc1 [DAPT] |  |  | Maximal concentration efficiency ([4]; titration, hepatocyte marker expression): 10 µM |
| c1cc(-c2cnn3cc(-c4ccc(OCCN5CCCCC5)cc4)cnc23)ccn1 [Dorsomorphin] | 0 |  |  |
| C[C@]12CCC(=O)C=C1CC[C@@H]1[C@@H]2[C@@H](O)C[C@@]2(C)[C@H]1CC[C@]2(O)C(=O)CO [Hydrocortison] |  | 0 |  |
| O=C1O[C@H]([C@@H](O)CO)C(O)=C1O [L-Ascorbic acid] |  | 0 |  |
| NC(=O)c1cccnc1 [Nicotinamide] |  | 3+ (3+ = >100% increase) | Prolongation of culture period [5]: essential for prolongation of culture period beyond the initial 7 days; Goblet and enteroendocrine cell differentiation [6]: strongly inhibited this differentiation |
| COc1cccc(-c2cc(=O)c3ccccc3o2)c1N [PD98059] | 1− (1− = 0-50%) |  |  |
| CCCCC[C@H](O)/C=C/[C@H]1[C@H](O)CC(=O)[C@@H]1C/C=C\CCCC(=O)O [PGE2, prostaglandin E2] |  | 1+ (1+ = <50% increase) | Culturing time without growth reduction ([2]; 5 fold expansion per week, 5 weeks without PGE2): at least 8 weeks; Number and size of liver organoids versus basal medium alone [2]: greater number of larger organoids |
| O=C(O)/C=C(/CCc1ccc(Cl)cc1)c1ccccc1 [PS48] | 0 |  |  |
| Cc1ccc(C(=O)Cn2c3c(sc2=N)CCCC3)cc1 [Pifithrin-α] | 0 |  |  |
| Cc1nc2sccn2c(=O)c1CCN1CCC(=C(c2ccccc2)c2ccc(F)cc2)CC1 [R 59022] |  |  | Result: CYP3AII [4]: + |
| Oc1ccc(-c2nc(-c3ccc(F)cc3)c(-c3ccncc3)[nH]2)cc1 [SB-202190, 4-[4-(4-Fluorophenyl)-5-(4-pyridinyl)-1H-imidazol-2-yl]phenol] |  |  | Goblet and enteroendocrine cell differentiation [6]: strongly inhibited this differentiation |
| Oc1c2ccccc2c2c3c(cccc13)N=N2 [SP600125] | 0 |  |  |
| CC(/C=C/C(=O)NO)=C\[C@@H](C)C(=O)c1ccc(N(C)C)cc1 [TSA] |  |  | Result: CYP3AII [4]: − |
| O.O.O.O=C(O)c1ncccc1O.O=C(O)c1ncccc1O.[O]=[V] [VO-OHpic trihydrate] | 3− (3− = >100% decrease) |  |  |
| C[C@@H](N)[C@H]1CC[C@H](C(=O)Nc2ccncc2)CC1.Cl.Cl.O [Y27632, R-(+)-trans-4-(1-aminoethyl)-N-(4-Pyridyl)cyclohexanecarboxamide dihydrochloride monohydrate] |  |  | Activity (plating efficiency compared with control after 4 days culture) [1]: 1+ (key: 0 = no change; 1+ = <50% increase; 2+ = 50-100% increase; 3+ = >100% increase; 1− = 0-50%; 2− = 50-100% decrease; 3− = >100% decrease); Organoid morphology note in Activity column [1]: cystic |
| Cholera Toxin |  |  | Activity (plating efficiency compared with control after 4 days culture) [1]: 1+ (key: 0 = no change; 1+ = <50% increase; 2+ = 50-100% increase; 3+ = >100% increase; 1− = 0-50%; 2− = 50-100% decrease; 3− = >100% decrease) |
| Exendin4: GLP1 analog; a 39 amino acid peptide |  | 0 |  |
| FGF2: growth factor (Peprotech) |  | 0 |  |
| LIF: growth factor (Millipore) |  | 0 |  |
